Test results: publication PMC11672547, “Combination of Coevolutionary Information and Supervised Learning Enables Generation of Cyclic Peptide Inhibitors with Enhanced Potency from a Small Data Set” (ACS Central Science, 2024)
Numbered stars: 1 amine (or outer) side, 2 acyl side, 3 side chain; on linkers, the order of the positions; unused ones are H or OH. Bridge positions count the residues as written; N and C are the ends. Peptide text beside a SMILES is read from it. TBMB = c1c(C[*:1])cc(C[*:3])cc1C[*:2]

Target: T1, human urokinase-type plasminogen activator (huPA) (Homo sapiens, UniProt P00749)
T1 construct: (UPA-LMW, Molecular Innovations, Novi, MI, USA) 1.5 nM; purchased Molecular Innovations UPA-LMW
Assay: huPA inhibition, fluorogenic enzyme activity assay (Z-Gly-Gly-Arg-AMC), Ki by Cheng-Prusoff
Type: biochemical
Settings: 25 °C, pH 7.4, substrate 50 μM, mean ± S.E. of at least three measurements, read-out: Ki
Procedure: bicyclic peptides. The activity assay was performed by incubating […] huPA with 50 μM fluorogenic substrate Z-Gly-Gly-Arg-AMC (50 μM; Bachem, Bubendorf, Switzerland) and […]
NaCl, 10 mM MgCl2, 1mM CaCl2, 0.1% w/v BSA, 0.01% v/v Triton-X100 and 5% v/v DMSO.
The measurements were performed on a Tecan microplate reader (Tecan infinite 200 pro, Tecan Trading AG, Switzerland) using black microfluor 96-well plate Nunc MicroWell, (Thermo Fisher Scientific, Dreieich, Germany) The enzymatic reactions were performed at 25 °C for 30 min, under shacking with an excitation wavelength of 355 nm and an emission recording at 460 nm. The initial velocities were monitored as changes in fluorescence intensity. The sigmoidal curves were fitted to the data using the following non-linear regression equation for the inhibitory dose-response curves with variable slope (2): […]
where x is the peptide concentration, y is the residual percentage of protease activity and p is the hill slope. Half maximum inhibitory concentration (IC50) values were derived from the fitted curves from GraphPad Prism 8 8.0.0. software (GraphPad software, Inc., San Diego, California). The final Ki was subsequently determined using the Cheng-Prusoff equation (3): […]
where Km (115 μM) is the Michaelis constant for the hydrolysis of Z-Gly-Gly-Arg-AMC catalysed by huPA which has been determined by standard Michaelis-Menten equation.
Values were determined using either OriginPro 8G software (OriginLab Corporation, Northamppton, MA, USA) or GraphPad Prism 8.0.0. software (GraphPad software, Inc., San […]
Recombinant production of the catalytic domain of human urokinase-type […]
The low molecular weight (LMW) human urokinase-type plasminogen activator (huPA) comprising the truncated 23 amino acid peptide fragment of chain A (Lys136-Lys158 in […]

First: CC(C)[C@@H]1NC(=O)[C@H](CCC(=O)O)NC(=O)[C@H](Cc2ccc(O)cc2)NC(=O)[C@H](CCCN=C(N)N)NC(=O)[C@H](CO)NC(=O)[C@@H](NC(=O)[C@H](C)N)CSCc2cc3cc(c2)CSC[C@H](NC(=O)[C@H](CC(=O)O)NC1=O)C(=O)N[C@@H](CCCN=C(N)N)C(=O)NCC(=O)N[C@@H](CCCN=C(N)N)C(=O)NCC(=O)N[C@@H](CO)C(=O)N[C@@H](C)C(=O)N[C@H](C(=O)NCC(N)=O)CSC3 [UK18, reference compound] (H-ACSRYEVDCRGRGSACG-NH2; linker 2-9-16 via TBMB)
Second: CC(C)[C@@H]1NC(=O)[C@H](CCC(=O)O)NC(=O)[C@H](Cc2ccc(O)cc2)NC(=O)[C@H](CCCNC(=N)N)NC(=O)[C@H](CO)NC(=O)[C@@H](NC(=O)[C@H](C)N)CSCc2cc3cc(c2)CSC[C@@H](C(=O)NCC(N)=O)NC(=O)[C@@H]2CCCN2C(=O)[C@H](CO)NC(=O)CNC(=O)[C@H](CCCNC(=N)N)NC(=O)CNC(=O)[C@H](CCCNC(=N)N)NC(=O)[C@H](CSC3)NC(=O)[C@H](CC(=O)O)NC1=O [UK964] (H-ACSRYEVDCRGRGSPCG-NH2; linker 2-9-16 via TBMB)
The Ki of the first is 1.7-fold higher: 54.7 ± 8 nM for the first, 31.4 ± 0.1 nM for the second.

First: CC(C)[C@@H]1NC(=O)CNC(=O)CNC(=O)[C@H](CCCNC(=N)N)NC(=O)CNC(=O)[C@H](CCCNC(=N)N)NC(=O)[C@@H]2CSCc3cc(cc(c3)CSC[C@@H](C(=O)NCC(N)=O)NC1=O)CSC[C@H](NC(=O)[C@H](C)N)C(=O)N[C@@H](CC(=O)O)C(=O)N[C@@H](CCCNC(=N)N)C(=O)N[C@@H](Cc1ccccc1)C(=O)N[C@@H](C(C)C)C(=O)N[C@@H](C(C)C)C(=O)N[C@@H](CC(=O)O)C(=O)N2 [UK956] (H-ACDRFVVDCRGRGGVCG-NH2; linker 2-9-16 via TBMB)
Second: CC(C)[C@@H]1NC(=O)[C@H](CO)NC(=O)CNC(=O)[C@H](CCCNC(=N)N)NC(=O)CNC(=O)[C@H](CCCNC(=N)N)NC(=O)[C@@H]2CSCc3cc(cc(c3)CSC[C@@H](C(=O)NCC(N)=O)NC1=O)CSC[C@H](NC(=O)[C@H](C)N)C(=O)N[C@@H](CC(=O)O)C(=O)N[C@@H](CCCNC(=N)N)C(=O)N[C@@H](Cc1ccccc1)C(=O)N[C@@H](C(C)C)C(=O)N[C@@H](C(C)C)C(=O)N[C@@H](CC(=O)O)C(=O)N2 [UK958] (H-ACDRFVVDCRGRGSVCG-NH2; linker 2-9-16 via TBMB)
The Ki of the first is 1.6-fold lower: 94.7 ± 0.3 nM for the first, 154.9 ± 1 nM for the second. The first binds more tightly here.

CC(C)[C@@H]1NC(=O)[C@H](Cc2ccccc2)NC(=O)[C@H](CCCNC(=N)N)NC(=O)[C@H](CC(=O)O)NC(=O)[C@@H](NC(=O)[C@H](C)N)CSCc2cc3cc(c2)CSC[C@@H](C(=O)NCC(N)=O)NC(=O)[C@@H]2CCCN2C(=O)CNC(=O)CNC(=O)[C@H](CCCNC(=N)N)NC(=O)CNC(=O)[C@H](CCCNC(=N)N)NC(=O)[C@H](CSC3)NC(=O)[C@H](CC(=O)O)NC(=O)[C@H](C(C)C)NC1=O [UK957] (H-ACDRFVVDCRGRGGPCG-NH2; linker 2-9-16 via TBMB) and CC(C)[C@@H]1NC(=O)[C@H](Cc2ccc(O)cc2)NC(=O)[C@H](CCCNC(=N)N)NC(=O)[C@H](CC(=O)O)NC(=O)[C@@H](NC(=O)[C@H](C)N)CSCc2cc3cc(c2)CSC[C@@H](C(=O)NCC(N)=O)NC(=O)[C@@H]2CCCN2C(=O)CNC(=O)CNC(=O)[C@H](CCCNC(=N)N)NC(=O)CNC(=O)[C@H](CCCNC(=N)N)NC(=O)[C@H](CSC3)NC(=O)[C@H](CC(=O)O)NC(=O)[C@H](C(C)C)NC1=O [UK969] (H-ACDRYVVDCRGRGGPCG-NH2; linker 2-9-16 via TBMB) are within 1.5-fold of each other in Ki: 7.4 ± 0.9 nM for the first, 5.3 ± 0.2 nM for the second.

CC(C)[C@@H]1NC(=O)[C@H](Cc2ccccc2)NC(=O)[C@H](CCCNC(=N)N)NC(=O)[C@H](CC(=O)O)NC(=O)[C@@H](NC(=O)[C@H](C)N)CSCc2cc3cc(c2)CSC[C@@H](C(=O)NCC(N)=O)NC(=O)[C@@H]2CCCN2C(=O)[C@H](CO)NC(=O)CNC(=O)[C@H](CCCNC(=N)N)NC(=O)CNC(=O)[C@H](CCCNC(=N)N)NC(=O)[C@H](CSC3)NC(=O)[C@H](CC(=O)O)NC(=O)[C@H](C(C)C)NC1=O [UK959] (H-ACDRFVVDCRGRGSPCG-NH2; linker 2-9-16 via TBMB) and CC(C)[C@@H]1NC(=O)[C@H](CCC(=O)O)NC(=O)[C@H](Cc2ccccc2)NC(=O)[C@H](CCCNC(=N)N)NC(=O)[C@H](CC(=O)O)NC(=O)[C@@H](NC(=O)[C@H](C)N)CSCc2cc3cc(c2)CSC[C@@H](C(=O)NCC(N)=O)NC(=O)[C@@H]2CCCN2C(=O)[C@H](CO)NC(=O)CNC(=O)[C@H](CCCNC(=N)N)NC(=O)CNC(=O)[C@H](CCCNC(=N)N)NC(=O)[C@H](CSC3)NC(=O)[C@H](CC(=O)O)NC1=O [UK963] (H-ACDRFEVDCRGRGSPCG-NH2; linker 2-9-16 via TBMB) are within 1.5-fold of each other in Ki: 77.5 ± 0.2 nM for the first, 81.4 ± 0.9 nM for the second.

CC(C)[C@@H]1NC(=O)CNC(=O)CNC(=O)[C@H](CCCNC(=N)N)NC(=O)CNC(=O)[C@H](CCCNC(=N)N)NC(=O)[C@@H]2CSCc3cc(cc(c3)CSC[C@@H](C(=O)NCC(N)=O)NC1=O)CSC[C@H](NC(=O)[C@H](C)N)C(=O)N[C@@H](CC(=O)O)C(=O)N[C@@H](CCCNC(=N)N)C(=O)N[C@@H](Cc1ccccc1)C(=O)N[C@@H](CCC(=O)O)C(=O)N[C@@H](C(C)C)C(=O)N[C@@H](CC(=O)O)C(=O)N2 [UK960] (H-ACDRFEVDCRGRGGVCG-NH2; linker 2-9-16 via TBMB) and CC(C)[C@@H]1NC(=O)[C@H](CO)NC(=O)CNC(=O)[C@H](CCCNC(=N)N)NC(=O)CNC(=O)[C@H](CCCNC(=N)N)NC(=O)[C@@H]2CSCc3cc(cc(c3)CSC[C@@H](C(=O)NCC(N)=O)NC1=O)CSC[C@H](NC(=O)[C@H](C)N)C(=O)N[C@@H](CC(=O)O)C(=O)N[C@@H](CCCNC(=N)N)C(=O)N[C@@H](Cc1ccccc1)C(=O)N[C@@H](CCC(=O)O)C(=O)N[C@@H](C(C)C)C(=O)N[C@@H](CC(=O)O)C(=O)N2 [UK962] (H-ACDRFEVDCRGRGSVCG-NH2; linker 2-9-16 via TBMB) are within error of each other in Ki: 81.2 ± 0.3 nM for the first, 81 ± 7.9 nM for the second.

CC(C)[C@@H]1NC(=O)[C@H](CCC(=O)O)NC(=O)[C@H](Cc2ccccc2)NC(=O)[C@H](CCCNC(=N)N)NC(=O)[C@H](CC(=O)O)NC(=O)[C@@H](NC(=O)[C@H](C)N)CSCc2cc3cc(c2)CSC[C@@H](C(=O)NCC(N)=O)NC(=O)[C@@H]2CCCN2C(=O)CNC(=O)CNC(=O)[C@H](CCCNC(=N)N)NC(=O)CNC(=O)[C@H](CCCNC(=N)N)NC(=O)[C@H](CSC3)NC(=O)[C@H](CC(=O)O)NC1=O [UK961] (H-ACDRFEVDCRGRGGPCG-NH2; linker 2-9-16 via TBMB) and CC(C)[C@@H]1NC(=O)[C@H](CCC(=O)O)NC(=O)[C@H](Cc2ccccc2)NC(=O)[C@H](CCCNC(=N)N)NC(=O)[C@H](CO)NC(=O)[C@@H](NC(=O)[C@H](C)N)CSCc2cc3cc(c2)CSC[C@@H](C(=O)NCC(N)=O)NC(=O)[C@@H]2CCCN2C(=O)CNC(=O)CNC(=O)[C@H](CCCNC(=N)N)NC(=O)CNC(=O)[C@H](CCCNC(=N)N)NC(=O)[C@H](CSC3)NC(=O)[C@H](CC(=O)O)NC1=O [UK967] (H-ACSRFEVDCRGRGGPCG-NH2; linker 2-9-16 via TBMB) are within 1.5-fold of each other in Ki: 16.2 nM for the first, 18.1 ± 0.3 nM for the second.

CC(C)[C@@H]1NC(=O)[C@H](CCC(=O)O)NC(=O)[C@H](Cc2ccc(O)cc2)NC(=O)[C@H](CCCNC(=N)N)NC(=O)[C@H](CO)NC(=O)[C@@H](NC(=O)[C@H](C)N)CSCc2cc3cc(c2)CSC[C@@H](C(=O)NCC(N)=O)NC(=O)[C@@H]2CCCN2C(=O)CNC(=O)CNC(=O)[C@H](CCCNC(=N)N)NC(=O)CNC(=O)[C@H](CCCNC(=N)N)NC(=O)[C@H](CSC3)NC(=O)[C@H](CC(=O)O)NC1=O [UK965] (H-ACSRYEVDCRGRGGPCG-NH2; linker 2-9-16 via TBMB) and CC(C)[C@@H]1NC(=O)[C@H](CCC(=O)O)NC(=O)[C@H](Cc2ccc(O)cc2)NC(=O)[C@H](CCCNC(=N)N)NC(=O)[C@H](CC(=O)O)NC(=O)[C@@H](NC(=O)[C@H](C)N)CSCc2cc3cc(c2)CSC[C@@H](C(=O)NCC(N)=O)NC(=O)[C@@H]2CCCN2C(=O)CNC(=O)CNC(=O)[C@H](CCCNC(=N)N)NC(=O)CNC(=O)[C@H](CCCNC(=N)N)NC(=O)[C@H](CSC3)NC(=O)[C@H](CC(=O)O)NC1=O [UK966] (H-ACDRYEVDCRGRGGPCG-NH2; linker 2-9-16 via TBMB) are within error of each other in Ki: 12.3 ± 1 nM for the first, 11.6 ± 1.2 nM for the second.

Compared with CC(C)[C@@H]1NC(=O)[C@H](Cc2ccc(O)cc2)NC(=O)[C@H](CCCNC(=N)N)NC(=O)[C@H](CO)NC(=O)[C@@H](NC(=O)[C@H](C)N)CSCc2cc3cc(c2)CSC[C@@H](C(=O)NCC(N)=O)NC(=O)[C@@H]2CCCN2C(=O)CNC(=O)CNC(=O)[C@H](CCCNC(=N)N)NC(=O)CNC(=O)[C@H](CCCNC(=N)N)NC(=O)[C@H](CSC3)NC(=O)[C@H](CC(=O)O)NC(=O)[C@H](C(C)C)NC1=O [UK968] (H-ACSRYVVDCRGRGGPCG-NH2; linker 2-9-16 via TBMB), CC(C)[C@@H]1NC(=O)[C@H](Cc2c[nH]c3ccccc23)NC(=O)[C@H](CCCNC(=N)N)NC(=O)[C@H](CO)NC(=O)[C@@H](NC(=O)[C@H](C)N)CSCc2cc3cc(c2)CSC[C@@H](C(=O)NCC(N)=O)NC(=O)[C@@H]2CCCN2C(=O)CNC(=O)CNC(=O)[C@H](CCCNC(=N)N)NC(=O)CNC(=O)[C@H](CCCNC(=N)N)NC(=O)[C@H](CSC3)NC(=O)[C@H](CC(=O)O)NC(=O)[C@H]([C@@H](C)O)NC1=O [UK972] (H-ACSRWVTDCRGRGGPCG-NH2; linker 2-9-16 via TBMB) is 2.7-fold higher in Ki: 5.5 ± 0.4 nM for the first, 14.8 nM for the second. The first binds more tightly here.
